Measured values published in patent US11912686B2 (Gilead Sciences, Inc., priority 2020, dated 2024).

target: human LPAR1 (Homo sapiens (Human), UniProt Q92633); experiment: LPAR1 intracellular calcium mobilization assay (antagonist mode, FLIPR); assay type: cell-based; conditions: CHO-K1 EDG2 cells expressing human LPAR1, LPA 18:2 at EC80 (100 nM), test compound 0.5 nM to 10 μM
Sequence (Q92633 whole entry): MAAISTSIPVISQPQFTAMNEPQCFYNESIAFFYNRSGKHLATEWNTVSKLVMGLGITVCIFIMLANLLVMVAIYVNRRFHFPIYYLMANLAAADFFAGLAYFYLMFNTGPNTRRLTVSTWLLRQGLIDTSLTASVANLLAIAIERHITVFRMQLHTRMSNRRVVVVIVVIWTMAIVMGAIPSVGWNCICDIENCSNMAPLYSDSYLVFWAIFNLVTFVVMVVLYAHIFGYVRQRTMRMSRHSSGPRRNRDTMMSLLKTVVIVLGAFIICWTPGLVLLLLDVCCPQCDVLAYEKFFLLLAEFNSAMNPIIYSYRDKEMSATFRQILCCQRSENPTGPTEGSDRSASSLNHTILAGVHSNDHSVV

In order of falling EC50:
1. C[C@@H](OC(=O)Nc1c(-c2ccc(NC(=O)c3cncc(F)c3Cl)cn2)nnn1C)c1cc(F)cnc1F [Compound 263, (R)-1-(2,5-difluoropyridin-3-yl)ethyl (4-(5-(4-chloro-5-fluoronicotinamido)pyridin-2-yl)-1-methyl-1H-1,2,3-triazol-5-yl)carbamate]  691 nM
2. C[C@@H](OC(=O)Nc1c(-c2ccc(NC(=O)c3cnccc3Cl)cn2)nnn1C)c1cc(F)cnc1F [Compound 253, (R)-1-(2,5-difluoropyridin-3-yl)ethyl (4-(5-(4-chloronicotinamido)pyridin-2-yl)-1-methyl-1H-1,2,3-triazol-5-yl)carbamate]  551 nM
3. Cc1nccc(C(=O)Nc2ccc(-c3nnn(C)c3NC(=O)O[C@H](C)c3cc(F)cnc3F)nc2)n1 [Compound 249, (R)-1-(2,5-difluoropyridin-3-yl)ethyl (1-methyl-4-(5-(2-methylpyrimidine-4-carboxamido)pyridin-2-yl)-1H-1,2,3-triazol-5-yl)carbamate]  537 nM
4. Cc1nnc(C(=O)Nc2ccc(-c3nnn(C)c3NC(=O)O[C@H](C)c3cc(F)cnc3F)nc2)o1 [Compound 257, (R)-1-(2,5-difluoropyridin-3-yl)ethyl (1-methyl-4-(5-(5-methyl-1,3,4-oxadiazole-2-carboxamido)pyridin-2-yl)-1H-1,2,3-triazol-5-yl)carbamate]  443 nM
5. C[C@@H](OC(=O)Nc1c(-c2ccc(NC(=O)c3cnc(F)cc3F)cn2)nnn1C)c1cc(F)cnc1F [Compound 255, (R)-1-(2,5-difluoropyridin-3-yl)ethyl (4-(5-(4,6-difluoronicotinamido)pyridin-2-yl)-1-methyl-1H-1,2,3-triazol-5-yl)carbamate]  346 nM
6. C[C@@H](OC(=O)Nc1c(-c2ccc(NC(=O)c3ccc(Cl)nn3)cn2)nnn1C)c1cc(F)cnc1F [Compound 250, (R)-1-(2,5-difluoropyridin-3-yl)ethyl (4-(5-(6-chloropyridazine-3-carboxamido)pyridin-2-yl)-1-methyl-1H-1,2,3-triazol-5-yl)carbamate]  276 nM
7. Cc1ncc(C(=O)Nc2ccc(-c3nnn(C)c3NC(=O)O[C@H](C)c3cc(F)cnc3F)nc2)o1 [Compound 256, (R)-1-(2,5-difluoropyridin-3-yl)ethyl (1-methyl-4-(5-(2-methyloxazole-5-carboxamido)pyridin-2-yl)-1H-1,2,3-triazol-5-yl)carbamate]  209 nM
8. C[C@@H](OC(=O)Nc1c(-c2ccc(NC(=O)c3cc(F)nc(F)c3F)cn2)nnn1C)c1cc(F)cnc1F [Compound 264, (R)-1-(2,5-difluoropyridin-3-yl)ethyl (1-methyl-4-(5-(2,3,6-trifluoroisonicotinamido)pyridin-2-yl)-1H-1,2,3-triazol-5-yl)carbamate]  203 nM
9. Cc1cc(C(=O)Nc2ccc(-c3nnn(C)c3NC(=O)O[C@H](C)c3cc(F)cnc3F)nc2)on1 [Compound 260, (R)-1-(2,5-difluoropyridin-3-yl)ethyl (1-methyl-4-(5-(3-methylisoxazole-5-carboxamido)pyridin-2-yl)-1H-1,2,3-triazol-5-yl)carbamate]  161 nM
10. C[C@@H](OC(=O)Nc1c(-c2ccc(NC(=O)c3cc(F)nc(F)c3)cn2)nnn1C)c1cc(F)cnc1F [Compound 244, (R)-1-(2,5-difluoropyridin-3-yl)ethyl (4-(5-(2,6-difluoroisonicotinamido)pyridin-2-yl)-1-methyl-1H-1,2,3-triazol-5-yl)carbamate]  131 nM
11. C[C@@H](OC(=O)Nc1c(-c2ccc(NC(=O)[C@@]3(C#N)C[C@@H]3C(F)F)cn2)nnn1C)c1cc(F)cnc1F [Compound 246, (R)-1-(2,5-difluoropyridin-3-yl)ethyl (4-(5-((1S,2S)-1-cyano-2-(difluoromethyl)cyclopropane-1-carboxamido)pyridin-2-yl)-1-methyl-1H-1,2,3-triazol-5-yl)carbamate]  103 nM
12. C[C@@H](OC(=O)Nc1c(-c2ccc(NC(=O)c3cnnc(C(F)(F)F)c3)cn2)nnn1C)c1cc(F)cnc1F [Compound 259, (R)-1-(2,5-difluoropyridin-3-yl)ethyl (1-methyl-4-(5-(6-(trifluoromethyl)pyridazine-4-carboxamido)pyridin-2-yl)-1H-1,2,3-triazol-5-yl)carbamate]  101 nM
13. C[C@@H](OC(=O)Nc1c(-c2ccc(NC(=O)c3cnc(C(F)F)nc3)cn2)nnn1C)c1cc(F)cnc1F [Compound 252, (R)-1-(2,5-difluoropyridin-3-yl)ethyl (4-(5-(2-(difluoromethyl)pyrimidine-5-carboxamido)pyridin-2-yl)-1-methyl-1H-1,2,3-triazol-5-yl)carbamate]  73.5 nM
14. C[C@@H](OC(=O)Nc1c(-c2ccc(NC(=O)c3ccnc(F)c3F)cn2)nnn1C)c1cc(F)cnc1F [Compound 243, (R)-1-(2,5-difluoropyridin-3-yl)ethyl (4-(5-(2,3-difluoroisonicotinamido)pyridin-2-yl)-1-methyl-1H-1,2,3-triazol-5-yl)carbamate]  71.9 nM
15. C[C@@H](OC(=O)Nc1c(-c2ccc(NC(=O)c3cnc(C(F)(F)F)nc3)cn2)nnn1C)c1cc(F)cnc1F [Compound 251, (R)-1-(2,5-difluoropyridin-3-yl)ethyl (1-methyl-4-(5-(2-(trifluoromethyl)pyrimidine-5-carboxamido)pyridin-2-yl)-1H-1,2,3-triazol-5-yl)carbamate]  38.5 nM
16. C[C@@H](OC(=O)Nc1c(-c2ccc(NC(=O)c3ccc(Cl)nc3F)cn2)nnn1C)c1cc(F)cnc1F [Compound 262, (R)-1-(2,5-difluoropyridin-3-yl)ethyl (4-(5-(6-chloro-2-fluoronicotinamido)pyridin-2-yl)-1-methyl-1H-1,2,3-triazol-5-yl)carbamate]  23.7 nM
17. C[C@@H](OC(=O)Nc1c(-c2ccc(NC(=O)c3cc(C#N)no3)cn2)nnn1C)c1cc(F)cnc1F [Compound 258, (R)-1-(2,5-difluoropyridin-3-yl)ethyl (4-(5-(3-cyanoisoxazole-5-carboxamido)pyridin-2-yl)-1-methyl-1H-1,2,3-triazol-5-yl)carbamate]  19.3 nM
18. C[C@@H](OC(=O)Nc1c(-c2ccc(NC(=O)c3ccc(C(F)(F)F)nc3F)cn2)nnn1C)c1cc(F)cnc1F [Compound 254, (R)-1-(2,5-difluoropyridin-3-yl)ethyl (4-(5-(2-fluoro-6-(trifluoromethyl)nicotinamido)pyridin-2-yl)-1-methyl-1H-1,2,3-triazol-5-yl)carbamate]  18.1 nM
19. C[C@@H](OC(=O)Nc1c(-c2ccc(NC(=O)c3ccnc(C(F)(F)F)c3F)cn2)nnn1C)c1cc(F)cnc1F [Compound 261, (R)-1-(2,5-difluoropyridin-3-yl)ethyl (4-(5-(3-fluoro-2-(trifluoromethyl)isonicotinamido)pyridin-2-yl)-1-methyl-1H-1,2,3-triazol-5-yl)carbamate]  11.9 nM
20. C[C@@H](OC(=O)Nc1c(-c2ccc(NC(=O)[C@]3(C#N)C[C@H]3C(F)F)cn2)nnn1C)c1cc(F)cnc1F [Compound 245, (R)-1-(2,5-difluoropyridin-3-yl)ethyl (4-(5-((1R,2R)-1-cyano-2-(difluoromethyl)cyclopropane-1-carboxamido)pyridin-2-yl)-1-methyl-1H-1,2,3-triazol-5-yl)carbamate]  11.7 nM
